Experiments:
[1] = system: C57 Mice; assay: Estimating circulating EPO release in mice (plasma EPO by mouse EPO ELISA); format: in vivo; settings: plasma six hours after administration, EPO in control = 62 ng/mL
Protocol: (1) Protocol for Estimating Circulating EPO Release in Mice
C57 Mice were administered various doses (10 mg/kg, 30 mg/kg, 50 mg/kg, 100 mg/kg) of compounds of the present invention by oral gavage at 10 ml/kg. Six hours after compound administration, mice were bled by retro-orbital puncture, under light ether anesthesia in microfuge tubes containing 2% EDTA (10 μl/100 μl of blood). Plasma was separated and analyzed for EPO content by mouse EPO ELISA.

[2] = system: C57 Mice; assay: Estimating hemoglobin levels in mice; format: in vivo; settings: oral once daily for 7 consecutive days at 20 mg/kg, whole blood on 8th day
Protocol: (2) Protocol for Estimating Hemoglobin Levels in Mice
C57 mice were administered compounds of the present invention at 10 ml/kg by oral route daily once in the morning for 7 consecutive days at 20 mg/kg. On 8th day animals were bled by retro-orbital puncture under light ether anesthesia in microfuge tubes containing 2% EDTA (10 μl/100 μl of blood) for whole blood. Hemoglobin, Reticulocyte count and RBC count were measured using standard procedures.

Row | SMILES | Hemoglobin (g/dL) 20 mg/kg compound [2] | also measured
1 | O=C(O)CNC(=O)c1c(O)c2ccccc2n(OCc2ccccc2)c1=O [Example 1, 2-(1-(benzyloxy)-4-hydroxy-2-oxo-1,2-dihydroquinoline-3-carboxamido)acetic acid] | – | EPO (ng/mL) oral gavage 100 mg/kg [1]: 7118 ng/mL
2 | C=CCOn1c(=O)c(C(=O)NCC(=O)O)c(O)c2cc(Oc3ccccc3)ccc21 [Example 8, 2-(1-(allyloxy)-4-hydroxy-2-oxo-6-phenoxy-1,2-dihydroquinoline-3-carboxamido)acetic acid] | 15.8 g/dL | –
3 | C=CCOn1c(=O)c(C(=O)NCC(=O)O)c(O)c2sccc21 [Example 10, 2-(4-(allyloxy)-7-hydroxy-5-oxo-4,5-dihydrothieno[3,2-b]pyridine-6-carboxamido)acetic acid] | 13.8 g/dL | –
4 | COn1c(=O)c(C(=O)NCC(=O)O)c(O)c2ccccc21 [Example 11, 2-(4-hydroxy-1-methoxy-2-oxo-1,2-dihydroquinoline-3-carboxamido)acetic acid] | – | EPO (ng/mL) oral gavage 100 mg/kg [1]: 1593 ng/mL
5 | O=C(O)CNC(=O)c1c(O)c2ccccc2n(OCc2ccc(C(F)(F)F)cc2)c1=O [Example 12, 2-(4-hydroxy-2-oxo-1-((4-(trifluoromethyl)benzyl)oxy)-1,2-dihydroquinoline-3-carboxamido)acetic acid] | – | EPO (ng/mL) oral gavage 100 mg/kg [1]: 7056 ng/mL
6 | O=C(O)CNC(=O)c1c(O)c2ccccc2n(OCc2c(F)cccc2F)c1=O [Example 16, 2-(1-((2,6-difluorobenzyl)oxy)-4-hydroxy-2-oxo-1,2-dihydroquinoline-3-carboxamido)acetic acid] | – | EPO (ng/mL) oral gavage 10 mg/kg ([1]; oral gavage 10 mg/kg): 100 ng/mL; EPO (ng/mL) oral gavage 50 mg/kg [1]: 8043 ng/mL
7 | O=C(O)CNC(=O)c1c(O)c2ccc(Cl)cc2n(OCc2c(F)cccc2F)c1=O [Example 20, 2-(7-chloro-1-((2,6-difluorobenzyl)oxy)-4-hydroxy-2-oxo-1,2-dihydroquinoline-3-carboxamido)acetic acid] | – | EPO (ng/mL) oral gavage 50 mg/kg [1]: 3797 ng/mL
8 | CC(C)On1c(=O)c(C(=O)NCC(=O)O)c(O)c2ccccc21 [Example 25, 2-(4-hydroxy-1-isopropoxy-2-oxo-1,2-dihydroquinoline-3-carboxamido)acetic acid] | 14.9 g/dL | –
9 | CC(C)COn1c(=O)c(C(=O)NCC(=O)O)c(O)c2ccccc21 [Example 28, 2-(4-hydroxy-1-isobutoxy-2-oxo-1,2-dihydroquinoline-3-carboxamido)acetic acid] | 16.9 g/dL | –
10 | O=C(O)CNC(=O)c1c(O)c2nccnc2n(OCc2c(F)cccc2F)c1=O [Example 36, 2-(5-((2,6-difluorobenzyl)oxy)-8-hydroxy-6-oxo-5,6-dihydropyrido[2,3-b]pyrazine-7-carboxamido)acetic acid] | 14.2 g/dL | –
11 | CCC(CC)On1c(=O)c(C(=O)NCC(=O)O)c(O)c2ccccc21 [Example 38, 2-(4-hydroxy-2-oxo-1-(pentan-3-yloxy)-1,2-dihydroquinoline-3-carboxamido)acetic acid] | 15.8 g/dL | –
12 | CCCOn1c(=O)c(C(=O)NCC(=O)O)c(O)c2scc(C)c21 [Example 40, 2-(7-hydroxy-3-methyl-5-oxo-4-propoxy-4,5-dihydrothieno[3,2-b]pyridine-6-carboxamido)acetic acid] | 16.1 g/dL | –
13 | Cc1csc2c(O)c(C(=O)NCC(=O)O)c(=O)n(OCc3c(F)cccc3F)c12 [Example 42, 2-(4-((2,6-difluorobenzyl)oxy)-7-hydroxy-3-methyl-5-oxo-4,5-dihydrothieno[3,2-b]pyridine-6-carboxamido)acetic acid] | 16.1 g/dL | –
14 | O=C(O)CNC(=O)c1c(O)c2ccccc2n(OCC2CCCCC2)c1=O [Example 44, 2-(1-(cyclohexylmethoxy)-4-hydroxy-2-oxo-1,2-dihydroquinoline-3-carboxamido)acetic acid] | 16.1 g/dL | –
15 | C[C@H](NC(=O)c1c(O)c2ccccc2n(OCC2CC2)c1=O)C(=O)O [Example 45, (S)-2-(1-(cyclopropylmethoxy)-4-hydroxy-2-oxo-1,2-dihydroquinoline-3-carboxamido)propanoic acid] | 15.7 g/dL | –
16 | O=C(O)CNC(=O)c1c(O)c2cncnc2n(OCc2c(F)cccc2F)c1=O [Example 46, 2-(8-((2,6-difluorobenzyl)oxy)-5-hydroxy-7-oxo-7,8-dihydropyrido[2,3-d]pyrimidine-6-carboxamido)acetic acid] | 14.2 g/dL | –

Row | SMILES | Hemoglobin (g/dL) 20 mg/kg compound [2] | also measured
17 | O=C(N[C@H](C(=O)O)c1ccccc1)c1c(O)c2ccccc2n(OCC2CC2)c1=O [Example 47, (S)-2-(1-(cyclopropylmethoxy)-4-hydroxy-2-oxo-1,2-dihydroquinoline-3-carboxamido)-2-phenylacetic acid] | 14.2 g/dL | –
18 | C=CCOn1c(=O)c(C(=O)NCC(=O)O)c(O)c2ccc(N3CCOCC3)cc21 [Example 48, 2-(1-(allyloxy)-4-hydroxy-7-morpholino-2-oxo-1,2-dihydroquinoline-3-carboxamido)acetic acid] | 13.9 g/dL | –
19 | CC(C)(C)OC(=O)CNC(=O)c1c(O)c2ccccc2n(OCC2CC2)c1=O [Example 49, tert-butyl-2-(1-(cyclopropylmethoxy)-4-hydroxy-2-oxo-1,2-dihydroquinoline-3-carboxamido)acetate] | 14.1 g/dL | –
20 | COC(=O)CNC(=O)c1c(O)c2ccccc2n(OCC2CC2)c1=O [Example 53, methyl-2-(1-(cyclopropylmethoxy)-4-hydroxy-2-oxo-1,2-dihydroquinoline-3-carboxamido)acetate] | 15.2 g/dL | –
21 | CC(C)C[C@H](NC(=O)c1c(O)c2ccccc2n(OCC2CC2)c1=O)C(=O)O [Example 54, (S)-2-(1-(cyclopropylmethoxy)-4-hydroxy-2-oxo-1,2-dihydroquinoline-3-carboxamido)-4-methylpentanoic acid] | 13.7 g/dL | –
22 | CC(C)[C@H](NC(=O)c1c(O)c2ccccc2n(OCC2CC2)c1=O)C(=O)O [Example 55, (S)-2-(1-(cyclopropylmethoxy)-4-hydroxy-2-oxo-1,2-dihydroquinoline-3-carboxamido)-3-methylbutanoic acid] | 13 g/dL | –
23 | O=C(O)CCNC(=O)c1c(O)c2ccccc2n(OCC2CC2)c1=O [Example 56, 3-(1-(cyclopropylmethoxy)-4-hydroxy-2-oxo-1,2-dihydroquinoline-3-carboxamido)propanoic acid] | 14.4 g/dL | –
24 | O=C(N[C@@H](Cc1ccccc1)C(=O)O)c1c(O)c2ccccc2n(OCC2CC2)c1=O [Example 58, (S)-2-(1-(cyclopropylmethoxy)-4-hydroxy-2-oxo-1,2-dihydroquinoline-3-carboxamido)-3-phenylpropanoic acid] | 14 g/dL | –
25 | O=C(O)CNC(=O)c1c(O)c2ccccc2n(OCc2ccccc2F)c1=O [Example 62, 2-(1-((2-fluorobenzyl)oxy)-4-hydroxy-2-oxo-1,2-dihydroquinoline-3-carboxamido)acetic acid] | – | EPO (ng/mL) oral gavage 50 mg/kg [1]: 398 ng/mL
26 | CCOn1c(=O)c(C(=O)NCC(=O)O)c(O)c2ccccc21 [Example 63, 2-(1-ethoxy-4-hydroxy-2-oxo-1,2-dihydroquinoline-3-carboxamido)acetic acid] | – | EPO (ng/mL) oral gavage 50 mg/kg [1]: 539 ng/mL
27 | O=C(O)CNC(=O)c1c(O)c2ccccc2n(OCC(F)(F)F)c1=O [Example 69, 2-(4-hydroxy-2-oxo-1-(2,2,2-trifluoroethoxy)-1,2-dihydroquinoline-3-carboxamido)acetic acid] | 15.7 g/dL | –
28 | O=C(O)CNC(=O)c1c(O)c2ccncc2n(OCC2CC2)c1=O [Example 70, 2-(1-(cyclopropylmethoxy)-4-hydroxy-2-oxo-1,2-dihydro-1,7-naphthyridine-3-carboxamido)acetic acid] | 13.9 g/dL | –
29 | CCCOn1c(=O)c(C(=O)N[C@@H](C)C(=O)O)c(O)c2ccccc21 [Example 73, (S)-2-(4-hydroxy-2-oxo-1-propoxy-1,2-dihydroquinoline-3-carboxamido)propanoic acid] | 16.2 g/dL | –
30 | O=C(O)CNC(=O)c1c(O)c2ccccc2n(OCC/C=C/C2CC2)c1=O [Example 76, 2-(1-((4-cyclopropylbut-3-en-1-yl)oxy)-4-hydroxy-2-oxo-1,2-dihydroquinoline-3-carboxamido)acetic acid] | 17.1 g/dL | –
31 | CCCC(CCC)On1c(=O)c(C(=O)NCC(=O)O)c(O)c2ccccc21 [Example 77, 2-(1-(heptan-4-yloxy)-4-hydroxy-2-oxo-1,2-dihydroquinoline-3-carboxamido)acetic acid] | 15.5 g/dL | –
32 | O=C(O)CNC(=O)c1c(O)c2sccc2n(OCC2CC2)c1=O [Example 79, 2-(4-(cyclopropylmethoxy)-7-hydroxy-5-oxo-4,5-dihydrothieno[3,2-b]pyridine-6-carboxamido)acetic acid] | 14.3 g/dL | –

Reference: patent US9394300B2, “Quinolone derivatives” (Cadila Healthcare Limited, priority 2012, dated 2016)
